Experiment [1] has as its system HK301. Description: GI50 assay (Cell Titer Glo proliferation, 3 days). Conditions: Homo sapiens, 72 h; HK301, 3 days; read-out: HK301 GI50. The experiment is classed as cell-based, human. For orientation: Cellular ATP, detected with luciferase, serves as a proxy for viable cell number.
For experiment [2], the system named is GBM39. Briefly: GI50 assay (Cell Titer Glo proliferation, 3 days). The experiment is classed as cell-based, human. Conditions: Homo sapiens, 72 h; GBM39, 3 days.

With `CN1CCN(CC2COc3cc4ncnc(Nc5cccc(Cl)c5F)c4cc3O2)CC1` (racemic) [JGK075, (±)-N-(3-Chloro-2-fluorophenyl)-7-[(4-methylpiperazin-1-yl)methyl]-7,8-dihydro[1,4]dioxino [2,3-g]quinazolin-4-amine], the GI50 (commonly the concentration that inhibits growth by half) in experiment [1] amounted to 1.18 µM; in experiment [2] it was 4 µM. With `Fc1c(Br)cccc1Nc1ncnc2cc3c(cc12)OC(CN1CCCCC1)CO3` (racemic) [JGK065, (±)-N-(3-Bromo-2-fluorophenyl)-7-[(piperidin-1-yl)methyl]-7,8-dihydro[1,4]dioxino[2,3-g]quinazolin-4-amine], the GI50 in experiment [1] stood at 3.43 µM; in experiment [2] it was 7.34 µM. The like results for `Fc1c(Cl)cccc1Nc1ncnc2cc3c(cc12)OCO3` [JGK041, N-(3-Chloro-2-fluorophenyl)-2H-[1,3]dioxolo[4,5-g]quinazolin-8-amine] were, in that order, 1.66 µM and 6.04 µM. The like results for `C=CC1COc2cc3ncnc(Nc4cccc(Br)c4F)c3cc2O1` (racemic) [JGK062, (±)-N-(3-Bromo-2-fluorophenyl)-7-ethenyl-7,8-dihydro[1,4]dioxino[2,3-g]quinazolin-4-amine] were, in that order, 3.78 µM and 5.86 µM.

As to `Fc1cccc(F)c1Nc1ncnc2cc3c(cc12)OCCO3` [JGK027], the GI50 worked out at 5.81 µM in experiment [1] and 11.8 µM in experiment [2]. The matching figures for `C#Cc1cccc(N(C(=O)OC(C)(C)C)C2=NC(OCC)N(C(=O)OC(C)(C)C)c3cc(OCCOC)c(OCCOC)cc32)c1` (stereo not drawn) [JGK003]: 1.13 µM and 23.1 µM.

Consider `Fc1c(Br)cccc1Nc1ncnc2cc3c(cc12)OC(CN1CCCC1)CO3` (racemic) [JGK067, (±)-N-(3-Bromo-2-fluorophenyl)-7-[(pyrrolidin-1-yl)methyl]-7,8-dihydro[1,4]dioxino[2,3-g]quinazolin-4-amine], for which the GI50 in experiment [1] came to 0.898 µM; in experiment [2] it was 2.2 µM. The matching figures for `Fc1c(Br)cccc1Nc1ncnc2cc3c(cc12)OC(CCN1CCOCC1)CO3` (racemic) [JGK064, (±)-N-(3-Bromo-2-fluorophenyl)-7-[2-(morpholin-4-yl)ethyl]-7,8-dihydro[1,4]dioxino[2,3-g]quinazolin-4-amine]: 1.21 µM and 4 µM.

Turning to `Fc1c(Cl)cccc1Nc1ncnc2cc3c(cc12)OCCCO3` [JGK040, N-(3-Chloro-2-fluorophenyl)-8,9-dihydro-7H-[1,4]dioxepino[2,3-g]quinazolin-4-amine], the GI50 was 1.72 µM in experiment [1] and 7.12 µM in experiment [2].

`Fc1c(Nc2ncnc3cc4c(cc23)OCCO4)ccc(Cl)c1Cl` [JGK060, N-(3,4-Dichloro-2-fluorophenyl)-7,8-dihydro[1,4]dioxino[2,3-g]quinazolin-4-amine]: the GI50 in experiment [1] came out at 2.95 µM; in experiment [2] it was 3.5 µM.

Consider `Fc1c(Br)cccc1Nc1ncnc2cc3c(c(F)c12)OCCO3` [JGK072, N-(3-Bromo-2-fluorophenyl)-5-fluoro-7,8-dihydro[1,4]dioxino[2,3-g]quinazolin-4-amine], for which the GI50 in experiment [1] worked out at 5.02 µM; in experiment [2], 12 µM. The like results for `Fc1c(Nc2ncnc3cc4c(cc23)OCCO4)cccc1C(F)(F)F` [JGK039, N-[2-Fluoro-3-(trifluoromethyl)phenyl]-7,8-dihydro[1,4]dioxino[2,3-g]quinazolin-4-amine] were, in that order, 3.61 µM and 7.82 µM.

Consider `OC[C@H]1COc2cc3ncnc(Nc4cccc(Br)c4F)c3cc2O1` [JGK082S], for which the GI50 in experiment [1] was found to be 1.67 µM; in experiment [2] it was 1.89 µM. The like results for `N#Cc1cccc(Nc2ncnc3cc4c(cc23)OCCO4)c1F` [JGK044, 3-[(7,8-Dihydro[1,4]dioxino[2,3-g]quinazolin-4-yl)amino]-2-fluorobenzonitrile] were, in that order, 4.52 µM and 5.63 µM.

`Fc1c(Br)cccc1Nc1ncnc2cc3c(cc12)OCC(CN1CCCCC1)O3` (racemic) [JGK080, (±)-N-(3-Bromo-2-fluorophenyl)-8-[(piperidin-1-yl)methyl]-7,8-dihydro[1,4]dioxino[2,3-g]quinazolin-4-amine]: the concentration for 50% growth inhibition (GI50) in experiment [1] was 7.37 µM; in experiment [2], 14.5 µM. The like results for `CC(=O)N(CCS(C)(=O)=O)Cc1ccc(-c2ccc3ncnc(N(C(C)=O)c4ccc(OCc5cccc(F)c5)c(Cl)c4)c3c2)o1` [JGK011] were, in that order, 9.21 µM and 3.25 µM. The matching figures for `COC(=O)[C@@H](N)Cc1ccc(Nc2ncnc3cc4c(cc23)OCCO4)cc1` [JGK016]: 4.05 µM and 61.6 µM. With `Fc1cc(Br)c(F)c(Nc2ncnc3cc4c(cc23)OCCO4)c1` [JGK061, N-(3-Bromo-2,5-difluorophenyl)-7,8-dihydro[1,4]dioxino[2,3-g]quinazolin-4-amine], the GI50 in experiment [1] turned out to be 1.13 µM; in experiment [2], 1.73 µM. For `C#Cc1cccc(N(C(=O)OC(C)(C)C)C2=NC(OC)N(C(=O)OC(C)(C)C)c3cc(OCCOC)c(OCCOC)cc32)c1` (stereo not drawn) [JGK001], the GI50 amounted to 2.21 µM in experiment [1] and 19.7 µM in experiment [2]. Take `N[C@H](Cc1ccc(Nc2ncnc3cc4c(cc23)OCCO4)cc1)C(=O)O` [JGK021]: the GI50 in experiment [1] came to 481 µM; in experiment [2], 556 µM. On to `CN(C)CC1COc2cc3c(Nc4cccc(Br)c4F)ncnc3cc2O1` (racemic) [JGK077, (±)-N-(3-Bromo-2-fluorophenyl)-8-[(dimethylamino)methyl]-7,8-dihydro[1,4]dioxino[2,3-g]quinazolin-4-amine], for which the GI50 in experiment [1] amounted to 6.84 µM; in experiment [2] it was 16.7 µM.

On to `CC(=O)OCN(c1cccc(Cl)c1F)c1ncnc2cc3c(cc12)OCCO3` [JGK043, [(3-Chloro-2-fluorophenyl)(7,8-dihydro[1,4]dioxino[2,3-g]quinazolin-4-yl)amino]methyl acetate], for which the GI50 came out at 0.745 µM in experiment [1] and 1.78 µM in experiment [2]. For `CN(C)CCC1COc2cc3ncnc(Nc4cccc(Br)c4F)c3cc2O1` (racemic) [JGK069, (±)-N-(3-Bromo-2-fluorophenyl)-7-[2-(dimethylamino)ethyl]-7,8-dihydro[1,4]dioxino[2,3-g]quinazolin-4-amine], the GI50 was 0.659 µM in experiment [1] and 2.17 µM in experiment [2]. For the compound `O=C(Oc1cc2ncnc(Nc3cccc(Cl)c3F)c2cc1OC(=O)c1ccccc1)c1ccccc1` [JGK004], the GI50 in experiment [1] amounted to 23.4 µM; in experiment [2], 103 µM. The like results for `C[C@@H]1Oc2cc3ncnc(Nc4cccc(Br)c4F)c3cc2O[C@H]1C` (racemic) [JGK059, (±)-trans-N-(3-Bromo-2-fluorophenyl)-7,8-dimethyl-7,8-dihydro[1,4]dioxino[2,3-g]quinazolin-4-amine] were, in that order, 8.11 µM and 11.2 µM. Take `Fc1c(Br)cc(Cl)cc1Nc1ncnc2cc3c(cc12)OCCO3` [JGK058, N-(3-Bromo-5-chloro-2-fluorophenyl)-7,8-dihydro[1,4]dioxino[2,3-g]quinazolin-4-amine]: the results for the GI50 in experiment [1] and in experiment [2] were 1.85 µM and 13 µM, respectively. The matching figures for `CN1CCN(CCC2COc3cc4ncnc(Nc5cccc(Br)c5F)c4cc3O2)CC1` (racemic) [JGK070, (±)-N-(3-Bromo-2-fluorophenyl)-7-[2-(4-methylpiperazin-1-yl)ethyl]-7,8-dihydro[1,4]dioxino[2,3-g]quinazolin-4-amine]: 1.41 µM and 3.33 µM.

Take `COC(=O)[C@H](Cc1ccc(Nc2ncnc3cc(O)c(O)cc23)cc1)NC(=O)OC(C)(C)C` [JGK020]: the GI50 came to 29.2 µM in experiment [1] and 36.2 µM in experiment [2].

Take `CC(C)(C)OC(=O)N(CCS(C)(=O)=O)Cc1ccc(-c2ccc3ncnc(Nc4ccc(OCc5cccc(F)c5)c(Cl)c4)c3c2)o1` [JGK008]: the GI50 in experiment [1] came to 81.3 µM.

`Brc1cccc(Nc2ncnc3cc4c(cc23)OCCO4)c1` [JGK073]: the GI50 in experiment [1] came out at 2.06 µM; in experiment [2], 6.07 µM. With `C#Cc1cccc(N(C(=O)CCCCOC(=O)CCCCOC(=O)CCCCOC(C)=O)c2ncnc3cc(OCCOC)c(OCCOC)cc23)c1` [JGK009], the GI50 in experiment [1] is 6.1 µM; in experiment [2] it was 14.6 µM. Take `Fc1ccc(Br)cc1Nc1ncnc2cc3c(cc12)OCCO3` [JGK055, N-(5-Bromo-2-fluorophenyl)-7,8-dihydro[1,4]dioxino[2,3-g]quinazolin-4-amine]: the GI50 in experiment [1] was 0.29 µM; in experiment [2], 0.966 µM. For `CN1CCN(CCC2COc3cc4c(Nc5cccc(Br)c5F)ncnc4cc3O2)CC1` (racemic) [JGK088, (±)-N-(3-Bromo-2-fluorophenyl)-8-[2-(4-methylpiperazin-1-yl)ethyl]-7,8-dihydro[1,4]dioxino[2,3-g]quinazolin-4-amine], the GI50 in experiment [1] stood at 2.13 µM; in experiment [2], 4.06 µM. On to `CC1Oc2cc3ncnc(Nc4cccc(Br)c4F)c3cc2OC1C` (racemic) [JGK051, (±)-cis- and (±)-trans-N-(3-Bromo-2-fluorophenyl)-7,8-dimethyl-7,8-dihydro[1,4]dioxino[2,3-g]quinazolin-4-amine], for which the values for the GI50 in experiment [1] and in experiment [2] were 8.25 µM and 24.1 µM, respectively.

Regarding `Fc1c(Br)cccc1Nc1ncnc2cc3c(cc12)OCC(CCN1CCCC1)O3` (racemic) [JGK089, (±)-N-(3-Bromo-2-fluorophenyl)-8-[2-(pyrrolidin-1-yl)ethyl]-7,8-dihydro[1,4]dioxino[2,3-g]quinazolin-4-amine], the GI50 in experiment [1] is 3.16 µM; in experiment [2], 5.09 µM. As for `Fc1c(Nc2ncnc3cc4c(cc23)OCCO4)ccc(Cl)c1Br` [JGK053, N-(3-Bromo-4-chloro-2-fluorophenyl)-7,8-dihydro[1,4]dioxino[2,3-g]quinazolin-4-amine], the GI50 was 2.78 µM in experiment [1] and 5.28 µM in experiment [2]. The matching figures for `COC(=O)[C@H](Cc1ccc(NC(=O)COc2cc3c(Nc4cccc(Cl)c4F)ncnc3cc2OC)cc1)NC(=O)OC(C)(C)C` [JGK024]: 156 µM and 125 µM. For the compound `CCOC(=O)N(c1cccc(Cl)c1F)c1ncnc2cc3c(cc12)OCCO3` [JGK047, Ethyl (3-chloro-2-fluorophenyl)7,8-dihydro[1,4]dioxino[2,3-g]quinazolin-4-ylcarbamate], in experiment [1], the GI50 came to 316 µM.

With `C#Cc1cccc(N(C(=O)[C@H](Cc2ccccc2)NC(=O)OC(C)(C)C)c2ncnc3cc(OCCOC)c(OCCOC)cc23)c1` [JGK007], the GI50 in experiment [1] was 92.1 µM.

These data come from patent US11377451B2, “Compositions and methods for treating cancer” (The Regents of the University of California, priority 2019, dated 2022).
